From patent US7732398B2, “Medicinal uses of mu-opioid receptor agonists” (Cornell Research Foundation, Inc., priority 2000, dated 2010)
Several values for one entry are separate records, joined by “and”; a condition that tells them apart may be missing. Equal entries are not always repeated. Marks after values point to notes of the source that are not given here.

Columns and labels:
[1] = tested on: Male Sprague-Dawley rats; assay: Rat tail-flick test, antinociceptive effects after intrathecal administration; type: in vivo; conditions: for time for which tail-flick latencies were significantly greater than baseline: 3 times ED50, direct percutaneous intrathecal injection, n=8; for Response Latencies: 3 times ED50 intrathecal, at peak analgesia; for Potency Ratios: antinociceptive potency relative to intrathecal morphine (=1); for EDT50: cumulative dose-response, quantal tail-flick test, n=10; for Baseline Latencies: tail-flick latency prior to the administration of any drug, n=4
Procedure: Male Sprague-Dawley rats (300-350 g) were used.
Under light halothane anesthesia a needle connected to a Hamilton syringe was inserted percutaneously between spinal processes of the third and fourth lumbar vertebrae into the intrathecal space. A quick flick of the tail was observed when the tip of the needle entered the intrathecal space and was used as an indicator of successful puncture (Mestre et al., 1994). Drugs were delivered in a volume of 5 μl.
Intrathecal catheterization was performed at least two days prior to the experiment as previously described (Shimoyama et al., 1996). Briefly, under halothane anesthesia, a PE-10 tube was inserted through a small hole made in the atlanto-occipital membrane and threaded 8.5 cm down the intrathecal space to the lumbosacral level of the spinal cord. Drugs were delivered via the catheter in a volume of 5 μl, followed by 10 μl saline to flush the catheter.
To assess the antinociceptive effects of the opioids, the tail-flick test was used. Radiant heat was applied to the tail at 5-8 cm from the tip using a tail-flick apparatus (IITC, Woodland Hills, Calif.). The time from the onset of the heat to the withdrawal of the tail (tail-flick latency) was measured. The intensity of the radiant heat was adjusted so that baseline latencies would fall between 2.5 and 3.5 seconds. To avoid tissue damage the heat stimulus was discontinued after seven seconds. A baseline latency was obtained for each animal prior to the administration of any drug. Subsequent response latencies were determined at designated time points. Analgesic testing was performed by a blinded investigator.
Cumulative dose-response studies were performed for each drug using the tail-flick test (Shimoyama et al., 1996), (Shimoyama et al., 1997). Each drug was tested in a group of ten rats. After measuring the baseline latencies, increasing doses of each drug were administered via an intrathecal catheter until each animal in the group became an analgesic responder. An analgesic responder was defined as one whose response tail-flick latency was two or more times the value of the baseline latency. The response latency after each dosing was determined at peak analgesia, which was 15, 30 and 45 min after the administration of the MOR, DALDA and [Dmt^1]DALDA, respectively (based on preliminary studies). Any subsequent dosing was performed immediately after the determination of response latency. The percentage of analgesic responders in the group of rats for each cumulative dose was calculated, and a cumulative dose-response curve was constructed. The dose-response data were analyzed by the BLISS-21 computer program. This program maximized the log-likelihood function to fit a parallel set of gaussian normal sigmoid curves to the dose-response data and provides ED50 values, 95% confidence interval (CI) and relative potency estimates (Umans and Inturrisi, 1981).
The effect of naloxone on the antinociceptive effects of intrathecal MOR, DALDA and [Dmt^1]DALDA was examined. An equipotent dose (3 times the ED50 value determined in Study 1) of MOR, DALDA or [Dmt^1]DALDA was given via an intrathecal catheter. Tail-flick latencies were measured prior to the administration of any drug and at the time of peak analgesia for each compound (at 15, 30 and 45 minutes after administration, for MOR, DALDA and [Dmt^1]DALDA, respectively). Naloxone hydrochloride at a dose of 82.5 nmol or saline was administered via the intrathecal catheter 10 minutes prior to the second tail-flick testing. Four rats were tested for each combination of drugs. Data were analyzed using the paired t-test.
A dose 3 times the ED50 value of MOR, DALDA, or [Dmt^1]DALDA was administered intrathecally. Tail-flick latencies were measured prior to the administration of any drug (=baseline latency) and at the time of peak analgesia (=response latency). […]

[2] = tested on: Male Sprague-Dawley rats; assay: Respiratory effects: minute ventilation (VE) under 5% CO2 challenge, whole body plethysmography; type: in vivo, rat; conditions: for minimum VE compared with saline group: intrathecal
Procedure: The effects of each drug on minute ventilation (VE) under 5% CO2 challenge were evaluated using whole body plethysmography (Tatsumi et al., 1991). An unrestrained rat was placed in a 3-liter whole-body plethysmograph chamber. After a 15-min acclimation period, a gas mixture of 5% CO2 and 21% O2 in N2 (100% humidified) was supplied into and out of the chamber at a rate of 1000 ml/min, and the animal was allowed to breathe the gas mixture for 5 minutes. After a steady-state ventilatory condition had been reached, with the animal awake and quiet, the inlet and outlet of the chamber were closed and the pressure changes in the box (due to the warming and wetting of the gas inspired by the rat and the cooling and drying of the expired gas) were recorded using a high-gain differential pressure transducer. A calibration volume of 0.2 ml of air was regularly introduced into the chamber during the recordings. The recordings were made for 20 to 30 seconds. Tidal volumes were calculated from the pressure changes using the equation derived by Drorbaugh and Fenn (1955). Respiratory frequencies were determined from the number of respiratory cycles in the recordings and VE values were calculated (tidal volume×frequency).
Rats were randomly assigned to one of 7 groups. The number of rats in each group was 6 to 10. The animals of each group were given 3 times (lower dose) or 30 times (higher dose) the ED50 value (antinociceptive) of MOR, DALDA or [Dmt^1]DALDA, or saline by direct percutaneous intrathecal injection. VE under 5% CO2 challenge was determined prior to and every hour up to 10 hours after the administration of the drug. VE values were expressed as a percentage of the baseline VE value obtained prior to the administration of any drug. The smallest VE value obtained after the administration of a drug (minimum V E) was determined for each animal. Mean values of the minimum V E for animals of each group were compared using the one-way analysis of variance followed by the Dunnett's test. For each animal, respiratory depression was defined as a minimum VE value that is below two standard deviations of the mean (mean−2×SD) of the saline group.
A minimum VE value (see Materials and Methods) less than the mean−(2×S.D.) of the minimum VE value of the saline group was considered a “low minimum VE”.

[3] = tested on: Male Sprague-Dawley rats; assay: Behavioral effects after intrathecal administration; type: in vivo, rat; conditions: for rigidity of the caudal part of the body: higher dose (30 times ED50)
Description: However, they retained their righting reflex.

[4] = tested on: [^3H]NE uptake in spinal cord synaptosomes; assay: Inhibition of [3H]NE uptake in spinal cord synaptosomes; type: biochemical, guinea pig; conditions: for IC50: spinal cord synaptosomes, 95% confidence interval in brackets
Procedure: Adult female Hartley strain guinea pigs (440-550 g) were decapitated and the spinal cords taken out. A crude synaptosomal (P2) fraction was prepared as described previously (Lonart and Johnson 1995; Li 2000). Briefly, the tissue was minced and homogenized in 10 ml of ice-cold 0.32 M sucrose solution (pH7.4) with a Thomas B075 homogenizor, clearance 0.13-0.18 mm. The homogenate was centrifuged for 10 min at 1,200×g in a Megafuge centrifuge at 4° C. The resulting supernatant was then centrifuged at 20,000×g for 20 min in JA-17 rotor of a Beckman J2-21 centrifuge at 4° C. and the supernatant discarded. The pellet (P2) was gently resuspended in aerated (100% O2) ice-cold buffer containing (in mM):HEPES 20, NaCl 140, KCl 5, NaHCO3 5, MgCl2 1, Na2HPO4 1.2, CaCl2 1.2 and glucose 10, pH 7.4, and centrifuge at 3,000×g for 12 min in a Megafuge at 4° C. Pour out the supernatant. Gently resuspend synaptosome in 10 ml buffer with the aid of a Dounce homogenizor just before using. Protein concentration was determined by the method of Bradford (1976) at 595 nm using bovine serum albumin as a standard in a Spectra Max plus machine (Molecular Device Co. Sunnyvale, Calif.)
Add buffer 0.6 ml in tubes, synaptosome solution 0.2 ml (about 100 μg), then varying concentration of drug 0.1 ml (each concentration performed in triplicate), put in water bath for pre-incubation for 10 min at 37° C. The uptake was initiated by the addition of [^3H]NE (100 nM) or [^3H]5-HT (50 nM) 0.1 ml, continued to incubate for 6 min and terminated by a rapid cooling of sample tubes in ice-cold water for 3 min. The synaptosome were then collected using a Harvest machine with GF/B filter, washed for 3 times with ice-cold 150 mM Tris HCl buffer (pH7.4) 2 ml. After drying, put filter in scintillation liquid vials then add scintillation liquid 6 ml. Filter-bound radioactivity was counted by liquid scintillation counter (Beckman LS6001). The difference in [^3H]NE or [^3H]5-HT accumulation at 37° C. and 0° C. was taken as a measure of active uptake. […]

[5] = naloxone hydrochloride 82.5 nmol intrathecal 10 min prior to measurement
[6] = high dose (30 times antinociceptive ED50)
[7] = higher dose, 30 times ED50 (Morphine 100 nmol of 10 rats, DALDA 7 nmol of 8, [Dmt1]DALDA 34 pmol of 7)
[8] = low dose (3 times antinociceptive ED50)
[9] = lower dose, 3 times ED50 (Morphine 10 nmol, DALDA 0.7 nmol, [Dmt1]DALDA 3.4 pmol), 6 rats per group

Compound	time for which tail-flick latencies were significantly greater than baseline [1] [h]	Response Latencies [1, 5]	Potency Ratios [1]	EDT50 ([1]; intrathecal) [pmol]	Baseline Latencies [1] [s]	minimum VE compared with saline group [2, 6]	Time of Occurrence of Low Minimum VE ([2]; higher dose, 30 times ED50)	No. of Rats with Low Minimum VE [2, 7]	minimum VE compared with saline group [2, 8]	Time of Occurrence of Low Minimum VE ([2]; lower dose, 3 times ED50)	No. of Rats with Low Minimum VE [2, 9]	rigidity of the caudal part of the body [3]	IC50 [4] [µM]	further results
NCCCC[C@H](NC(=O)[C@H](Cc1ccccc1)NC(=O)[C@@H](CCCN=C(N)N)NC(=O)[C@@H](N)Cc1ccc(O)cc1)C(N)=O [DALDA, H-Tyr-D-Arg-Phe-Lys-NH2]	7	not different from baseline values	14 and 14.1	237	2.63 ± 0.15	significantly lower minimum VE	3-5 h after administration	4	significantly lower minimum VE	3-5 h after administration	4	Rigidity of the caudal part of the body was observed in each animal	54	Response Latencies ([1]; saline 10 min prior to measurement, cut-off 7 s, listed as DALDA + saline): ≥ 7 (cut-off latency)* s; minimum VE ([2]; four rats of the higher dose DALDA group): less than 60 % of baseline; sedative effects ([3]; higher dose, coincided with respiratory depression): showed sedative effects
CN1CC[C@]23c4c5ccc(O)c4O[C@H]2[C@@H](O)C=C[C@H]3[C@H]1C5 [Morphine, morphine, reference compound]	3	not different from baseline values	–	3330	2.78 ± 0.50	significantly lower	3-5 h after administration	4	–	4 h after administration	1	Rigidity of the caudal part of the body was observed in each animal	–	Response Latencies ([1]; saline 10 min prior to measurement, cut-off 7 s, listed as MOR + saline): ≥ 7 (cut-off latency)* s; No. of Rats with Low Minimum VE ([2]; lower dose, 3 times ED50 (Morphine 10 nmol, DALDA 0.7 nmol, [Dmt1]DALDA 3.4 pmol), 6 rats per group, listed as MOR): one
Cc1cc(O)cc(C)c1C[C@H](N)C(=O)N[C@H](CCCNC(=N)N)C(=O)N[C@@H](Cc1ccccc1)C(=O)N[C@@H](CCCCN)C(N)=O [[Dmt^1]DALDA, 2′,6′-dimethyl-Tyr-D-Arg-Phe-Lys-NH2]	13	not different from baseline values	3000 and 3160	1.06	2.83 ± 0.17	not different	3 h after administration	–	not different	–	–	Rigidity of the caudal part of the body was observed in each animal	4.1	Response Latencies ([1]; saline 10 min prior to measurement, cut-off 7 s, listed as [Dmt^1]DALDA + saline): ≥ 7 (cut-off latency)* s; potency relative to DALDA in the rat tail flick test ([1]; after intrathecal administration): 200 fold; effect of added yohimbine (100 μg) on the antinociceptive effect ([1]; intrathecal, [Dmt1]DALDA 1.1 pmol or DALDA 240 pmol with yohimbine): significantly attenuated; inhibition of [3H]NE uptake ([4]; at a dose of 10^−4): 80.6±1.5%
